Among the data in BindingDB's records for doi:10.1021/jm070574f (University of Copenhagen, 2007) are IC50 values, retold here.

As a reminder, the IC50 is the point on the concentration scale where inhibition reaches its midpoint. Higher therefore signals lower potency.

This assay deals with Neuronal acetylcholine receptor subunit alpha-7 (Homo sapiens, UniProt P36544). Description: Antagonist activity at human alpha-7 nAChR in tsA201 cells coexpressed with Ric3 by FMP assay.

SMILES strings stand for the structures.

Sequence of Neuronal acetylcholine receptor subunit alpha-7 (P36544 whole entry): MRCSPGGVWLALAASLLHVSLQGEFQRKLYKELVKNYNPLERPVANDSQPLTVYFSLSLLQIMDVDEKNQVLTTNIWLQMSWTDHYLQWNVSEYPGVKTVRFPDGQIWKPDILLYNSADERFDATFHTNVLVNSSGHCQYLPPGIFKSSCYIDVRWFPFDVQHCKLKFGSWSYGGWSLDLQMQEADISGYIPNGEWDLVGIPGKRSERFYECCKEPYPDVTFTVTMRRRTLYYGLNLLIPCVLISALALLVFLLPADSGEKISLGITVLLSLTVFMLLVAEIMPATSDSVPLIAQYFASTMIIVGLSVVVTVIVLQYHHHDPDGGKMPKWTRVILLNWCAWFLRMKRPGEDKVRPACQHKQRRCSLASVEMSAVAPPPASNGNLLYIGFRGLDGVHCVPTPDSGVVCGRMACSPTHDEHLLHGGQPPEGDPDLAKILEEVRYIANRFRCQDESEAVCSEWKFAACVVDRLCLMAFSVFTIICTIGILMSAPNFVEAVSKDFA

Regarding `CCN1C[C@]2(COC(=O)c3ccccc3-n3c(O)cc(C)c3O)CC[C@H](OC)[C@]34[C@@H]5C[C@H]6[C@H](OC)[C@@H]5[C@](O)(C[C@@H]6OC)[C@@](O)([C@H]13)[C@@H](OC)[C@H]24` [METHYLLYCACONITINE], it took 8.3 nM to reach half-maximal inhibition (IC50).
